According to patent US4994460A, “Agents for treatment of brain ischemia” (Bristol-Myers Squibb Co., priority 1990, dated 1991):
Structures can show the parent of a compound that is named as a salt.

Test system: hypoxia-induced death
Experiment: Anoxic Nitrogen Test in Rats (survival after 1 min pure N2)
Assay type: in vivo, male Sprague-Dawley rats
Conditions: Rattus norvegicus, ip, Table 2; 40 mg/kg ip; read-out: Rating (survival)
Excerpt: Most specifically, administration of the compounds of Formula I results in protecting against hypoxia-induced death in an anoxic nitrogen test in rats. This particular test identifies the neuro-protective effects of substances against lethal brain damages produced by a lack of oxygen consumption (anoxia). In this test procedure, control animals exposed for one minute to a pure nitrogen atmosphere will expire because of respiratory failure caused by irreversible damage to the brain respiratory center.
The animals utilized are male Sprague-Dawley rats (200-240 grams) housed four animals per cage in a normal controlled environment with unlimited access to food and water. Usually there are 8 animals per dose, however, 4 animals can be employed to obtain an initial impression of a compound's activity. Animals surviving the anoxic insult are sacrificed via CO2 inhalation following completion of the observation session (2 hr).
[…] The anoxic episode consists of placing up to 4 animals in the sealed test chamber (10" l×10" w×6" h) continuously flushed with pure N2 (4.5 grade) at a flow rate of 3 SCFM for 1 min. Animals are then promptly removed to normal atmosphere and observed for the 2 hour time period. Typically, animals become disoriented within 15 sec which leads into convulsions at 30 to 35 sec after which they remain motionless.
In spite of the fact that after the N2 exposure the heart is still beating, all control animals fail to gasp when removed from the chamber and usually expire within 3 minutes. Drug treated animals, however, still gasp or start gasping after being removed which is a good indication if an animal will survive the N2 exposure (1).
Results are recorded as: [formula] and are statistically evaluated using the Finney Dose Response program for determination of the ED50 and its corresponding 95% confidence limits.
Compounds of the present invention were rated at each dose level tested using the following rating scale:
+=weak activity (up to 25% survival)
++=moderate activity (25-50% survival)
+++=good activity (51-75% survival)
++++=very good activity (76-100%)
With `O=S(=O)(CCCN1CCN(c2ncc(F)cn2)CC1)c1ccc(F)cc1` [Example 21, 1-[3-(4-Fluorophenylsulfonyl)propyl]-4-(5-fluoro-2-pyrimidinyl)piperazine] the responders at 40 mg/kg was under 25%.
`O=C(NC(CCCN1CCN(c2ncc(F)cn2)CC1)c1ccc(F)cc1)c1ccc(F)cc1` (centres unmarked) [Example 19, 1-[4-(4-Fluorobenzamido)-4-(4-fluorophenyl)butyl]-4-(5-fluoro-2-pyrimidinyl)piperazine] gave a responders at 40 mg/kg of 76 to 100%.
`O=C(CCCN1CCN(c2ncc(F)cn2)CC1)c1ccc(F)c2ccccc12` [Example 13, 1-(4-Fluoronaphth-1-yl)-4-[4-(5-fluoro-2-pyrimidinyl)-1-piperazinyl]butanon] showed a responders at 40 mg/kg of 25 to 50%.
Molecule `Fc1cnc(N2CCN(CCCC3OCCO3)CC2)nc1` [Example 11, 1-[3-(1,3-dioxolan-2-yl)propyl]-4-(5-Fluoro-2-pyrimidinyl) piperazine] has a responders at 40 mg/kg of under 25%.
`O=C(CCCN1CCN(c2ncc(F)cn2)CC1)c1cccs1` [Example 12, 1-(2-Thienyl)-4-[4-(5-fluoro-2-pyrimidinyl)-1-piperazinyl]butanone] gave a responders at 40 mg/kg of under 25%.
`CC(=O)NC(CCCN1CCN(c2ncc(F)cn2)CC1)c1ccc(F)cc1` (centres unmarked) [Example 18, 1-[4-Acetamido-4-(4-fluorophenyl)butyl]-4-(5-fluoro-2-pyrimidinyl)piperazine monohydrochloride] showed a responders at 40 mg/kg of under 25%.

Same assay, conditions: Rattus norvegicus, ip, Table 2; 80 mg/kg ip; read-out: Rating (survival)
`O=S(=O)(NC(CCCN1CCN(c2ncc(F)cn2)CC1)c1ccc(F)cc1)c1ccc(F)cc1` (centres unmarked) [Example 20, 1-[4-(4-Fluorophenyl)-4-(4-fluorophenylsulfonamido)butyl]-4-(5-fluoro-2-pyrimidinyl)piperazine] showed a responders at 80 mg/kg of 76 to 100%.
Molecule `OC(CCCN1CCN(c2ncc(F)cn2)CC1)C1CCCCC1` (centres unmarked) [Example 22, 1-Cyclohexyl-4-[4-(5-fluoro-2-pyrimidinyl)-1-piperazinyl]butanol] has a responders at 80 mg/kg of 51 to 75%.
For `O=C(CCCN1CCN(c2ncc(F)cn2)CC1)c1ccc(F)c2ccccc12` [Example 13, 1-(4-Fluoronaphth-1-yl)-4-[4-(5-fluoro-2-pyrimidinyl)-1-piperazinyl]butanon], the responders at 80 mg/kg was 76 to 100%.

Same assay, conditions: Rattus norvegicus, ip, Table 2; 100 mg/kg ip; read-out: Rating (survival)
`OC(CCCN1CCN(c2ncc(F)cn2)CC1)c1ccc(F)c2ccccc12` (centres unmarked) [Example 23, 1-(4-Fluoronaphth-1-yl)-4-[4-(5-fluoro-2-pyrimidinyl)-1-piperazinyl]butanol] gave a responders at 100 mg/kg of 76 to 100%.

Same assay, conditions: Rattus norvegicus, ip, Table 3; 40 mg/kg i.p. 60 minutes prior to anoxia testing; read-out: Anti-ischemic Rating
Molecule `O=C(NC(CCCN1CCN(c2ncc(F)cn2)CC1)c1ccc(F)c2ccccc12)c1ccc(F)cc1` (centres unmarked) [Example 26] has a responders at 40 mg/kg of 25 to 50%.
`Fc1cnc(N2CCN(CCCCC3CCCCC3)CC2)nc1` [Example 31] gave a responders at 40 mg/kg of 25 to 50%.
Work on `O=C(NC(CCCN1CCN(c2ncc(F)cn2)CC1)c1ccc(F)cc1)c1ccc(F)c2ccccc12` (centres unmarked) [Example 44] yielded a responders at 40 mg/kg of 25 to 50%.
Molecule `Fc1cnc(N2CCN(CCCCc3ccc(F)c4ccccc34)CC2)nc1` [Example 28] has a responders at 40 mg/kg of 51 to 75%.
With `O=C(CCCN1CCN(c2ncc(F)cn2)CC1)C1CCCCC1` [Example 48] the responders at 40 mg/kg was 76 to 100%.
`O=S(=O)(NC(CCCN1CCN(c2ncc(F)cn2)CC1)C1CCCCC1)c1ccc(F)cc1` (centres unmarked) [Example 30] showed a responders at 40 mg/kg of 25 to 50%.
In the case of `O=C(NC(CCCN1CCN(c2ncc(F)cn2)CC1)C1CCCCC1)c1ccc(F)cc1` (centres unmarked) [Example 49], the responders at 40 mg/kg is reported as under 25%.
Work on `O=S(=O)(NC(CCCN1CCN(c2ncc(F)cn2)CC1)c1ccc(F)c2ccccc12)c1ccc(F)cc1` (centres unmarked) [Example 45] yielded a responders at 40 mg/kg of under 25%.
`Fc1ccc(CCN2CCN(c3ncc(F)cn3)CC2)cc1` [Example 47] showed a responders at 40 mg/kg of under 25%.
Molecule `O=C(OC(CCCN1CCN(c2ncc(F)cn2)CC1)c1ccc(F)cc1)c1ccccc1` (centres unmarked) [Example 46] has a responders at 40 mg/kg of 25 to 50%.
Work on `O=C(NC(CCCN1CCN(c2ncc(F)cn2)CC1)c1ccc(F)cc1)c1ccccc1` (centres unmarked) [Example 43] yielded a responders at 40 mg/kg of 25 to 50%.

Same assay, conditions: Rattus norvegicus, ip; 40 mg/kg ip; read-out: Anti-ischemic Rating
`O=C(OC(CCCN1CCN(c2ncc(F)cn2)CC1)c1ccc(F)cc1)c1ccc(F)cc1` (centres unmarked) [Example 39, 1-(4-Fluorophenyl)-4-(4-(5-fluoro-2-pyrimidinyl)-1-piperazinyl)-1-butyl 4-fluorobenzoate hydrochloride] gave a responders at 40 mg/kg of 51 to 75%.
For `NC(CCCN1CCN(c2ncc(F)cn2)CC1)c1ccc(F)c2ccccc12` (centres unmarked) [Example 41, 1-(4-Fluoro-1-naphthyl)-4-(4-(5-fluoro-2-pyrimidinyl)-1-piperazinyl) butylamine hydrochloride], the responders at 40 mg/kg was 76 to 100%.
For `[N-]=[N+]=NC(CCCN1CCN(c2ncc(F)cn2)CC1)c1ccc(F)c2ccccc12` (centres unmarked) [Example 40, 1-(4-Azido-4-(4-fluoro-1-naphthyl)-1-butyl)-4-(5-fluoro-2-pyrimidinyl)piperazine monohydrochloride], the responders at 40 mg/kg was 25 to 50%.
Work on `COC(CCCN1CCN(c2ncc(F)cn2)CC1)c1ccc(F)cc1` (centres unmarked) [Example 42, 1-[4-(4-Fluorophenyl)-4-methoxybutyl]-4-(5-fluoropyrimidin-2-yl) piperazine hydrochloride] yielded a responders at 40 mg/kg of 25 to 50%.
`OC(CCCN1CCN(c2ncc(F)cn2)CC1)(c1ccc(F)cc1)C1CCCCC1` (centres unmarked) [Example 37, 1-Cyclohexyl-1-(4-fluorophenyl)-4-(4-(5-fluoro-2-pyrimidinyl)-1-piperazinyl)-1-butanol] showed a responders at 40 mg/kg of 51 to 75%.

Same assay, conditions: Rattus norvegicus; Table 2; "^ 40^a" mg/kg ip, given 60 minutes prior to anoxia testing; read-out: Rating (survival)
Molecule `Fc1ccc(SCCCN2CCN(c3ncc(F)cn3)CC2)cc1` [Example 10, 1-[3-(4-Fluorophenylthio)propyl]-4-(5-fluoro-2-pyrimidinyl) piperazine] has a responders at 40 mg/kg of under 25%.

Same assay, conditions: Rattus norvegicus; ip; anoxic nitrogen test, 2 hr observation; 95% confidence limits in brackets; read-out: ED50 (19/20 C.L)
`C[C@]12N[C@H](Cc3ccccc31)c1ccccc12` [(+)MK-801, reference compound] showed an ED50 of 3.1 mg/kg.
In the case of `CN(c1nc2ccccc2s1)C1CCN(CC(O)COc2ccc(F)cc2)CC1` (centres unmarked) [Sabeluzole], the ED50 is reported as 4.7 mg/kg.

Test system: not given
Experiment: not given
Conditions: Wauquier et al., Drug Development Research 8/373-380 (1986); cited from earlier work
In the case of `CN(c1nc2ccccc2s1)C1CCN(CC(O)COc2ccc(F)cc2)CC1` (centres unmarked) [Sabeluzole], the anticonvulsant properties is given as “anticonvulsant properties” and the antihypoxic activity is given as “potent antihypoxic agent”.

Test system: animal models of stroke and brain infarction
Experiment: not given
Conditions: Gotti et al., JPET 247/3, 1211-1221 (1988); cited from earlier work
In the case of `CC(C(O)c1ccc(O)cc1)N1CCC(Cc2ccccc2)CC1` (centres unmarked) [ifenprodil], the tissue sparing is given as “effective in tissue sparing”.
